The source of these data is ChEMBL document CHEMBL4304829, “PROTAC Degradation of IRAK4 for the Treatment of Cancer” (ACS Med Chem Lett, 2019).

Assay type in all cases: cell-based
Test [1] has as its target T1, Protein cereblon/Interleukin-1 receptor-associated kinase 4 (Homo sapiens) (UniProt Q9NWZ3+Q96SW2). Briefly: Protac activity at IRAK4 in human OCl-LY10 cells assessed as increase in E3 ubiquitin ligase mediated IRAK4 degradation at 0.01 uM incubated for 4 hrs by Western blot analysis relative to control.
For test [2], the target named is T1, Protein cereblon/Interleukin-1 receptor-associated kinase 4 (Homo sapiens). The experiment in a line: Protac activity at IRAK4 in human OCl-LY10 cells assessed as increase in E3 ubiquitin ligase mediated IRAK4 degradation at 0.1 uM incubated for 4 hrs by Western blot analysis relative to control.
Test [3] has the same target. Briefly: Protac activity at IRAK4 in human OCl-LY10 cells assessed as increase in E3 ubiquitin ligase mediated IRAK4 degradation at 1 uM incubated for 4 hrs by Western blot analysis relative to control.

T1 sequence (Q96SW2 whole entry, looked up): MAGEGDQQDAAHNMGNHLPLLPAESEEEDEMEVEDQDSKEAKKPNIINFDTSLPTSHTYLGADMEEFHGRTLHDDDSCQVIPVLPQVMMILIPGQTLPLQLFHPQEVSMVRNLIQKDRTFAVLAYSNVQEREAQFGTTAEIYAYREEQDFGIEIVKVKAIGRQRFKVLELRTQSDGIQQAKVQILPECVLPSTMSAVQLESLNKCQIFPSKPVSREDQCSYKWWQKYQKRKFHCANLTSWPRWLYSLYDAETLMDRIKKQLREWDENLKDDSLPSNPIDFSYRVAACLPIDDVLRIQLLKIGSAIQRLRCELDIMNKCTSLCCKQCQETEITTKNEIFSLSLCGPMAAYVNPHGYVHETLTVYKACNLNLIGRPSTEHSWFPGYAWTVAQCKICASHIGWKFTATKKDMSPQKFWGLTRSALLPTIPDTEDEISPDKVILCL
T1 sequence (Q9NWZ3 whole entry, looked up): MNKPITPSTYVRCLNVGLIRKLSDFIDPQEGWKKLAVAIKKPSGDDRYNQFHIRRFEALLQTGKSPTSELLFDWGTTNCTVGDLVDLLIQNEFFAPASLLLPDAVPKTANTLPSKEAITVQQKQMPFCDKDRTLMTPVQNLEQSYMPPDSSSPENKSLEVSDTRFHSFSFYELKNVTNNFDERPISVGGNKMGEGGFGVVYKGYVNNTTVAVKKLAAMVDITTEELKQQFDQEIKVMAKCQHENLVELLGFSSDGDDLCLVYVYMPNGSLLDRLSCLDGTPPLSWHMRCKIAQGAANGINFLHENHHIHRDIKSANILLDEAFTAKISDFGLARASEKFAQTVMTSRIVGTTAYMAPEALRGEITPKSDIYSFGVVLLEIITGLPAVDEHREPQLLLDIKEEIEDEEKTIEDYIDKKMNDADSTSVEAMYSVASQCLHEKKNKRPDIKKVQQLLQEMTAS

Consider `O=C1CCC(N2C(=O)c3cccc(NCCNCCOCCNC(=O)c4ccc(-n5cc(NC(=O)c6coc(-c7ccnc(NCC8CC8)c7)n6)c(C(F)(F)F)n5)cc4)c3C2=O)C(=O)N1` (stereo not given), for which the Activity in test [1], in test [2] and in test [3] was more than 50% in each case.
In the case of `NC(=O)c1nn(-c2ccc(CNCC3CN(CCOCCNc4cccc5c4C(=O)N(C4CCC(=O)NC4=O)C5=O)CCO3)cc2)cc1NC(=O)c1coc(-c2ccnc(NCC(F)(F)F)c2)n1` (stereo not given), the Activity in test [1], in test [2] and in test [3] was more than 50% throughout.
`NC(=O)c1nn(-c2ccc(C(=O)NCC3CCCCN3CCOCCNc3cccc4c3C(=O)N(C3CCC(=O)NC3=O)C4=O)cc2)cc1NC(=O)c1coc(-c2ccnc(NCC(F)(F)F)c2)n1` (stereo not given): the Activity in test [1], in test [2] and in test [3] was more than 50% each time.
Turning to `CN(CCOCCCc1cccc2c1C(=O)N(C1CCC(=O)NC1=O)C2=O)Cc1ccc(-n2cc(NC(=O)c3coc(-c4ccnc(NCC5CC5)c4)n3)c(C(N)=O)n2)cc1` (stereo not given), the figures for the Activity in test [1], in test [2] and in test [3] were more than 20%, more than 50% and more than 50%, respectively.
Regarding `O=C1CCC(N2C(=O)c3cccc(NC4CCN(CCOCCOCCNC(=O)c5ccc(-n6cc(NC(=O)c7coc(-c8ccnc(NCC(F)(F)F)c8)n7)c(C(F)F)n6)cc5)CC4)c3C2=O)C(=O)N1` (stereo not given), the Activity in test [1], in test [2] and in test [3] was more than 50% in each case.
As to `CN(CCOCCOCCCc1ccc2c(c1)C(=O)N(C1CCC(=O)NC1=O)C2=O)Cc1ccc(-n2cc(NC(=O)c3coc(-c4ccnc(NCC5CC5)c4)n3)c(C(N)=O)n2)cc1` (stereo not given), the Activity in test [1] is more than 20%; in test [2] it was more than 50%; in test [3] it was more than 50%.
Take `CN(CCOCCOCCCc1ccc2c(c1)C(=O)N(C1CCC(=O)NC1=O)C2=O)C(=O)c1ccc(-n2cc(NC(=O)c3coc(-c4ccnc(NCC5CC5)c4)n3)c(C(N)=O)n2)cc1` (stereo not given): the Activity in test [1], in test [2] and in test [3] was more than 50% each time.
Turning to `CN(CCOCCOCCCc1ccc2c(c1)C(=O)N(C1CCC(=O)NC1=O)C2=O)Cc1ccc(-n2cc(NC(=O)c3coc(-c4ccncc4)n3)c(C(N)=O)n2)cc1` (stereo not given), the Activity in test [1] is more than 20%; in test [2] it was more than 50%; in test [3] it was more than 50%.
Consider `NCc1nn(-c2ccc(C(=O)NCCOCCOCCNc3cccc4c3C(=O)N(C3CCC(=O)NC3=O)C4=O)cc2)cc1NC(=O)c1coc(-c2ccnc(NCC(F)(F)F)c2)n1` (stereo not given), for which the Activity in test [1], in test [2] and in test [3] was more than 50% in each case.
`O=C1CCC(n2c(=O)oc3c(CCCOCCOCCNC(=O)c4ccc(-n5cc(NC(=O)c6coc(-c7ccnc(NCC8CC8)c7)n6)c(C(F)F)n5)cc4)cccc32)C(=O)N1` (stereo not given): the results for the Activity in test [1], in test [2] and in test [3] were more than 20%, more than 50% and more than 50%, respectively.
